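Assay format: 96-well plates, 48-hour exposure. GI50 = concentration required for 50% inhibition of growth. TGI: concentration producing complete growth inhibition.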

This experiment concerns MDA-MB-468 breast. Description: inhibition of tumour cell growth, NCI panel, 48 h.
As for `Cn1ccnc1C(=O)/C=C/c1ccc(CC(=O)Nc2ccc(Br)cc2)cc1`, the GI50 is 2700 nM and the TGI turned out to be 6620 nM.

Take `COc1c2ccoc2c(/C=C/C=O)c2oc(-c3ccccc3)cc(=O)c12`: the GI50 was 7020 nM and the TGI came to 22200 nM.

In the case of `Oc1ccc(Cl)cc1-c1cc(-c2ccccc2Cl)[nH]n1`, the GI50 was 1960 nM and the TGI came to 7930 nM.

In the case of `Clc1ccc2oc3c(NCCCN4CCOCC4)c4ccccc4nc3c2c1`, the GI50 is 1490 nM and the TGI came out at 3500 nM.

Take `CSc1ccccc1C#C/C=C\C#Cc1ccccc1N1CCCC1=O`: the GI50 was 1890 nM and the TGI turned out to be 13800 nM.

On to `CC(=O)[O][Hg][c]1c(N)c(C)cc(C)c1F`, for which the GI50 was 1340 nM and the TGI turned out to be 2740 nM.

Regarding `CN(C)CCCNC1=C(Cl)C(=O)c2ccccc2C1=O`, the GI50 was 1590 nM and the TGI is 3330 nM.

In the case of `C=C(CNCCO)[C@@H]1CC[C@]2(CO)CC[C@]3(C)[C@H](CC[C@@H]4[C@@]5(C)CCC(N)C(C)(C)[C@@H]5CC[C@]43C)[C@@H]12` (some centres not stated), the GI50 was 1670 nM and the TGI turned out to be 3530 nM.

For `CCOC(=O)Nc1nc2ccc(OCC)cc2s1`, the GI50 is 2080 nM and the TGI is more than 100000 nM.

Take `Nc1cc2nc3ccccc3sc-2cc1=O`: the GI50 was 3740 nM and the TGI amounted to 16100 nM.

For the molecule `Cc1nc2c(nc1C)C(=O)c1ccccc1C2=O`, the GI50 was 1500 nM and the TGI worked out at 6040 nM.

For the molecule `CCOc1ccccc1-n1c(CN2CCN(C(=O)COc3ccc(CNCCCCCCN4C5CCCC4CC(OC(=O)Nc4cc(C)ccc4OC)C5)cc3)CC2)nc2ccccc2c1=O` (configuration not stated), the GI50 is 786 nM and the TGI stood at 2420 nM.

With `COc1cc2c(c(OC)c1O)C(=O)C(OC)C(c1ccc(O)c(O)c1)O2` (configuration not stated), the GI50 was 464 nM and the TGI worked out at 33300 nM.

Take `O=C(Nc1ccc(I)cc1)c1cc([N+](=O)[O-])ccc1O`: the GI50 is 3990 nM and the TGI was found to be 39400 nM.

As for `Cc1cc(=O)n2[nH]c(-c3ccc(C(C)(C)C)cc3)cc2n1`, the GI50 was 3380 nM and the TGI was 40600 nM.

Take `Fc1ccc(Nc2ncnc3ccc(-c4cnc5[nH]ccc5c4)cc23)cc1Cl`: the GI50 is 115 nM and the TGI came out at 575 nM.

For the molecule `CNC(=O)c1cc(Oc2ccc3nc(NC(=O)Nc4ccc(Cl)c(C(F)(F)F)c4)sc3c2)ccn1`, the GI50 is 1360 nM and the TGI came out at 4100 nM.

Regarding `NC1CCC(Nc2nc(NCc3ccc(-c4ccco4)nc3)c3ncn(C4CCCC4)c3n2)CC1` (configuration not stated), the GI50 was 8.41 nM and the TGI is 34.9 nM.

Regarding `O=C1c2ccccc2C(=O)c2sc(Nc3cccc(Cl)c3)nc21`, the GI50 was 1770 nM and the TGI amounted to 3890 nM.

With `COC(=O)Nc1nc2ccc(S(=O)c3ccccc3)cc2[nH]1` (configuration not stated), the GI50 is 1940 nM and the TGI came to 8290 nM.

On to `O=C(CCl)N1c2ccccc2Oc2ccc3ccccc3c21`, for which the GI50 was 973 nM and the TGI worked out at 2450 nM.

In the case of `Clc1cccc(Cc2cn3cc(-c4ccccc4)nc3s2)c1Cl`, the GI50 was 6280 nM and the TGI is more than 100000 nM.

With `O=C(Nc1ccc(F)cc1F)c1cc(I)ccc1O`, the GI50 was 2550 nM and the TGI was 6880 nM.

As for `COc1cc2c3c(n(CCCNC4CCCCC4)c(=O)c2cc1OC)-c1cc2c(cc1C3=O)OCO2`, the GI50 was 5650 nM and the TGI came out at 15700 nM.

In the case of `O=C(NCCNc1nccc(-c2c(-c3cccc(O)c3)nc3sccn23)n1)c1ccccc1O`, the GI50 was 2640 nM and the TGI was found to be 21000 nM.

Regarding `CCCCCCCC(=O)SCC/C=C/[C@@H]1CC(=O)NCc2cccc(n2)C2=N[C@@](C)(CS2)C(=O)N[C@@H](C(C)C)C(=O)N1`, the GI50 was 535 nM and the TGI is more than 33300 nM.

On to `O=C(CN1CCN(c2cc3c(cc2F)c(=O)c(C(=O)N/N=C/c2ccccc2O)cn3C2CC2)CC1)N/N=C\c1ccccc1O`, for which the GI50 is 599 nM and the TGI came to 2960 nM.

`COc1ccc2c(c1)C(=O)/C(=C/c1ccc(OCC(=O)Nc3nccs3)cc1)O2`: the GI50 was 18.1 nM and the TGI is 39.2 nM.

As for `Clc1ccc2c(N/N=C/c3c[nH]c4ccccc34)ccnc2c1`, the GI50 is 1010 nM and the TGI stood at 2450 nM.

In the case of `Cc1cc2nc(C(Cl)Cl)nc(-c3ccc(Cl)cc3)n2n1`, the GI50 is 299 nM and the TGI worked out at 1120 nM.

Take `CNC(=O)c1ccccc1Nc1nc(Nc2ccc(N3CCOCC3)cc2OC)ncc1Cl`: the GI50 was 1490 nM and the TGI was determined as 4320 nM.

Turning to `COc1cc2nc(-c3ccc(C(F)(F)F)cc3)cc(OCCCN3CCC(O)CC3)c2cc1OC`, the GI50 was 1630 nM and the TGI is 11300 nM.

Turning to `O=C1/C(=C/c2ccc([N+](=O)[O-])cc2)COc2ccc(O)c(O)c21`, the GI50 is 1870 nM and the TGI was 5550 nM.

In the case of `COc1cc(/C=C/c2cc(/C=C/c3ccc(O)c(OC)c3)n(C(=O)Nc3ccc(F)cc3)n2)ccc1O`, the GI50 was 1400 nM and the TGI was determined as 5760 nM.

On to `CC(C)c1ccc(C(C)C(=O)N(CC2=C(C(C)c3ccccn3)c3ccccc3C2)C(C)C)cc1` (configuration not stated), for which the GI50 was 2780 nM and the TGI turned out to be 41700 nM.

With `COc1cc(C(=O)/C=C/c2sc(Cl)nc2Cl)cc(OC)c1OC`, the GI50 was 1830 nM and the TGI turned out to be 3700 nM.

Regarding `NC(CSC(c1ccccc1)(c1ccccc1)c1ccc2c(c1)OCO2)C(=O)O` (configuration not stated), the GI50 is 254 nM and the TGI was 672 nM.

Consider `O=c1n(CC2CO2)c(=O)n(CC2CO2)n1CC1CO1` (configuration not stated), for which the GI50 is 2290 nM and the TGI was determined as 16800 nM.

As for `Cc1cnc(NC(=O)C(Cc2ccccc2)NC(=O)c2ccccc2)s1` (configuration not stated), the GI50 is 15800 nM and the TGI was 35700 nM.

For `C[C@@H](CS(C)(=O)=O)Nc1ncc2cc(Oc3ccc(F)cc3F)c(=O)n(C)c2n1`, the GI50 was more than 25000 nM and the TGI is more than 25000 nM.

As to `COc1ccc(-c2cc(-c3ccc(Nc4nc(Nc5ccccc5)nc(Nc5ccc(Cl)cc5)n4)cc3)nc(N)c2C#N)cc1`, the GI50 is 1150 nM and the TGI stood at 3050 nM.
